Values of other authors as cited in US5952306A, “Integrin receptor antagonists” (Merck & Co., Inc., priority 1997, dated 1999).

Key:
[1] = tested on: platelet aggregation and thrombus formation in mammalian blood
[2] = tested on: cell attachment-promoting effects of fibronectin and vitronectin

## Echistatin
Bone resorption
  block bone resorption: can effectively block bone resorption

## N-amidino-piperidine-3-carboxylglycyl-L-aspartyl-L-valine
[1]
  inhibit platelet aggregation and thrombus formation in mammalian blood: inhibit platelet aggregation and thrombus formation

## arginine-glycine-aspartic acid [Arg-Gly-Asp]
[2]
  activity (duplicate or inhibit cell attachment-promoting effects): low activity
